EPA's ToxValDB 9.5 (doi:10.2903/j.efsa.2016.4493)

What was measured:
[1] = test system: Folsomia candida; conditions: chronic/long-term; duration: 4 weeks; reproduction
[2] = test system: Apis mellifera; conditions: acute, mortality
[3] = test system: Tagia sp.; conditions: mortality
[4] = test system: Oncorhynchus mykiss
[5] = test system: Bibionidae; conditions: chronic/long-term; duration: 28 days; other
[6] = test system: Rattus norvegicus
[7] = test system: Mus musculus; conditions: acute; oral; mortality
[8] = test system: Coturnix japonica
[9] = test system: Oryctolagus sp.; conditions: developmental; development

SMILES: O=S(=O)(O)O.Oc1cccc2cccnc12.Oc1cccc2cccnc12 [8-Hydroxyquinoline sulfate]
- NOEC [1]: 52.4 mg/kg
- LD50 ([2]; dermal): > 100 µg/piece
- LD50 ([2]; oral, unspecified): > 68.6 µg/piece
- LC50 ([3]; acute, duration: 14 days): > 409 mg/kg
- NOEC ([3]; chronic/long-term): 417 mg/kg
- LC50 ([4]; acute, duration: 96 hours, mortality): 2.68 µg/mL
- NOEC ([4]; chronic/long-term, duration: 28 days, development): 10.5 µg/L
- NOEC [5]: 167 mg/L

SMILES: Oc1cccc2cccnc12 [8-Hydroxyquinoline]
- NOAEL ([6]; chronic, duration: 2 years, body weight): 73 mg/kg-day
- NOAEL ([6]; subchronic, duration: 90 days, oral, hematological): 97.7 mg/kg-day
- LD50 [7]: 177 mg/kg-day
- LD50 ([8]; acute, oral, diet, mortality): > 1070 mg/kg-day
- LC50 ([8]; acute, oral, mortality): 311 mg/kg-day
- NOAEL ([8]; chronic): 2.78 mg/kg-day
- NOAEL [9]: 5 mg/kg-day
